Laboratory results: US7282507B2, “Indole derivatives as selective androgen receptor modulators (SARMS)” (Janssen Pharmaceutica N.V., priority 2004, dated 2007)
Where “and” joins values, the source holds several entries; their conditions need not be identical. Equal entries are not always repeated.

Experiments:
[1] = target: T1, androgen receptor (AdEasy+rAR, COS-7 cells) (Rattus norvegicus, UniProt P15207); test: COS-7 Whole-Cell Androgen Receptor Binding Assay, Adenovirus Transduction; settings: for % Inhibition, COS Binding / inhibition at 3 µM: concentration of 3000 nM; for IC50: read-out: IC50 (nM), COS Binding
T1 construct: expressed in transfected cells; host or cells: COS-7 cells transduced with adenovirus AdEasy+rAR
T1 sequence (P15207 1-902): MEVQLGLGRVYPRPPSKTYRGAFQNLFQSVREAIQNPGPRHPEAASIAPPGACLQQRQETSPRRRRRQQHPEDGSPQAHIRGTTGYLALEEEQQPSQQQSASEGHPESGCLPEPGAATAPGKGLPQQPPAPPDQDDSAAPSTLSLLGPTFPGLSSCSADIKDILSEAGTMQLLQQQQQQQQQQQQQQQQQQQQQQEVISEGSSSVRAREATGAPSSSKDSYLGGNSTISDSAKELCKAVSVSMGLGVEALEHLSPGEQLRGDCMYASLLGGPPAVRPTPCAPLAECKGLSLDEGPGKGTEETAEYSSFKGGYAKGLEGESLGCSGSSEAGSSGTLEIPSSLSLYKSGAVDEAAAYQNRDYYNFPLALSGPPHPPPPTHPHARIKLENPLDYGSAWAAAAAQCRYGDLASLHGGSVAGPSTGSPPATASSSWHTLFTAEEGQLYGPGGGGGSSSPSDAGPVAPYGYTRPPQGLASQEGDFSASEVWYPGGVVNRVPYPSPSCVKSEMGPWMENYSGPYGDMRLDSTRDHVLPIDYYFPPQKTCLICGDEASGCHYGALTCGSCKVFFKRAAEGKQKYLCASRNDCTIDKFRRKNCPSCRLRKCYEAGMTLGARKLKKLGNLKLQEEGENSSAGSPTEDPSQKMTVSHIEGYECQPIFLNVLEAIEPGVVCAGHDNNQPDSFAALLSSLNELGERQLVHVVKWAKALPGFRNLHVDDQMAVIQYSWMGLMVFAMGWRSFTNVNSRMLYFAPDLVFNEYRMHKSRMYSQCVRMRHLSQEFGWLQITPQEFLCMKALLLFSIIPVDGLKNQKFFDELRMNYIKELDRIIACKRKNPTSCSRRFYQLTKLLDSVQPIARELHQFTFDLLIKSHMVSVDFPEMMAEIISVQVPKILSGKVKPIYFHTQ
Summary of the method: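 COS-7 cells in phenol red-free DMEM/F12 with 10% charcoal-treated FBS were transduced with AdEasy+rAR adenovirus (moi 1:50 per well), exposed to test compound in duplicate and incubated for 48 h at 37° C. Cells were then lysed in 0.5% Triton X-100 and bound radioactivity counted by scintillation.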

[2] = target: T2, androgen receptor (AdEasy+rAR, L929 cells) (Rattus norvegicus, UniProt P15207); test: L929 Androgen Receptor Functional Assay, Adenovirus Transduction; type: cell-based; settings: for % Activity, L929 androgen receptor functional assay / EC50: agonist testing; for % Inhibition, L929 androgen receptor functional assay: antagonist testing with R1881, 3000 nM; for inhibition at 3 µM: L929, antagonist testing with R1881, 3000 nM; for IC50: antagonist testing with R1881
T2 construct: expressed in transfected cells; host or cells: L929 cells transduced with adenovirus AdEasy+rAR
T2 sequence (P15207 1-902): T1 sequence (P15207 1-902)
Summary of the method: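 L929 cells in phenol red-free, charcoal-stripped serum medium transduced with AdEasy+rAR (moi 1:500) and exposed 48 h at 37 °C to compound alone (agonist mode) or with R1881 (antagonist mode; 2.5 nM as the 2.5× dilution).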

SMILES | % Activity, L929 androgen receptor functional assay ([2]; 3000 nM) [%] | inhibition at 3 µM [1] [%] | IC50 [1] | inhibition at 3 µM [2] [%] | further results
CC(O)(C[S+]([O-])Cc1ccccc1)c1cc2cc([N+](=O)[O-])c(C(F)(F)F)cc2[nH]1 (mixture of isomers) [Compound 161] | 2 | – | – | – | % Inhibition, COS Binding [1]: 20%
COc1ccc(S(=O)(=O)CC(C)(O)c2cc3cc(Cl)c(C(F)(F)F)cc3[nH]2)cc1 (racemic) [Compound 129] | −5 | – | – | – | % Inhibition, COS Binding [1]: 10%; % Inhibition, L929 androgen receptor functional assay [2]: −8%
COc1ccc(SCC(C)(O)c2cc3cc(Cl)c(C(F)(F)F)cc3n2S(C)(=O)=O)cc1 (racemic) [Compound 130] | −5 | – | – | – | % Inhibition, COS Binding [1]: −8%
CCSCC(C)(O)c1cc2cc([N+](=O)[O-])c(C(F)(F)F)cc2[nH]1 (racemic) [Compound 142] | 0 | 90 | 220 nM | 78 | –
CCSCC(C)(O)c1cc2cc([N+](=O)[O-])c(C(F)(F)F)cc2n1C (racemic) [Compound 165] | 1 | 69 | > 3000 nM | 100 | –
CSCC(C)(O)c1cc2cc([N+](=O)[O-])c(C(F)(F)F)cc2[nH]1 (single isomer, unassigned) [Compound 144] | – | – | 375 nM | 82 | % Activity, L929 androgen receptor functional assay ([2]; 3000 nM, 3 µM): 0%
CSCC(C)(O)c1cc2cc([N+](=O)[O-])c(C(F)(F)F)cc2[nH]1 (single isomer, unassigned) [Compound 145] | – | 84.7 | 36.7 nM | – | % Activity, L929 androgen receptor functional assay ([2]; 3000 nM, 3 µM): 1%; % Inhibition, L929 androgen receptor functional assay ([2]; 3 µM): 94%
CCSCC(C)(O)c1cc2cc([N+](=O)[O-])c(C(F)(F)F)cc2[nH]1 (single isomer, unassigned) [Compound 149] | 2 | 63 | 780 nM and > 790 nM | 77 | –
CCSCC(C)(O)c1cc2cc([N+](=O)[O-])c(C(F)(F)F)cc2[nH]1 (single isomer, unassigned) [Compound 150] | – | – | 165 nM and 627 nM | – | % Inhibition, COS Binding ([1]; 3 µM): 81% and 74%; EC50 [2]: > 8000 nM; % Activity, L929 androgen receptor functional assay ([2]; @ 8000 nM): 0 @ 8000 nM %; IC50 [2]: 303 nM
CC[S+]([O-])C[C@](C)(O)c1cc2cc([N+](=O)[O-])c(C(F)(F)F)cc2[nH]1 (stereo in doubt) [Compound 155, 1-Ethanesulfinyl-2-(5-nitro-6-trifluoromethyl-1H-indol-2-yl)-propan-2-ol] | 2 | 35 | – | -2 | –
CSCCC(C)(O)c1cc2cc([N+](=O)[O-])c(C(F)(F)F)cc2[nH]1 (stereo not shown) [Compound 47] | 2 | 78 | > 1000 nM | 75 | –
CC(O)(CCS(C)(=O)=O)c1cc2cc([N+](=O)[O-])c(C(F)(F)F)cc2[nH]1 (stereo not shown) [Compound 49] | 2 | 30 | > 3000 nM | 8 | –
CC(O)(CSc1ccc(N)cc1)c1cc2cc(Cl)c(C(F)(F)F)cc2[nH]1 (stereo not shown) [Compound 104] | 9 | 94 | – | 18 | –
CC(O)(CS(=O)(=O)c1ccc(N)cc1)c1cc2cc(Cl)c(C(F)(F)F)cc2[nH]1 (stereo not shown) [Compound 118] | – | 62 | > 1500 nM | 63 | EC50 [2]: > 8000 nM; % Activity, L929 androgen receptor functional assay ([2]; @ 8000 nM): −2 @ 8000 nM %; IC50 [2]: 3070 nM
CC(O)(CSc1ccc(O)cc1)c1cc2cc(Cl)c(C(F)(F)F)cc2[nH]1 (stereo not shown) [Compound 120] | −5 | 86 | 205 nM | 44 | –
